Like-named read-outs stand apart in the source and are kept apart here.
Legend:
[1] = pKa of DPV (chemical properties); assay type: physicochemical
[2] = tested on: wild-type HIV-1 strains and HIV-1 strains harboring different resistance-inducing mutations; details: Das et al., J. Med Chem., 2004; cited from earlier work
[3] = Solubility of DPV (Form I) in various solvents; assay type: physicochemical

Question: What does the source list for `Cc1cc(C)c(Nc2ccnc(Nc3ccc(C#N)cc3)n2)c(C)c1` [DPV, 4-[[4-[(2,4,6-trimethylphenyl)amino]-2-pyrimidinyl]amino]benzonitrile]?
Answer: pKa [1]: 5.8; activity against wild-type and resistant HIV-1 strains [2]: potent activity; Solubility ([3]; Form I, 0.01M HCl): 0.17 mg/g; Solubility ([3]; Form I, 0.1M HCl): 0.02 mg/g; Solubility ([3]; Form I, 0.1M NaOH): 0.001 mg/g; Solubility ([3]; Form I, Buffer pH 2): 0.095 mg/g; Solubility ([3]; Form I, Buffer pH 4): 0.0025 mg/g; Solubility ([3]; Form I, Buffer pH 6): 0.001 mg/g; Solubility ([3]; Form I, Buffer pH 8): 0.001 mg/g; Solubility ([3]; Form I, Buffer pH 10): 0.001 mg/g; Solubility ([3]; Form I, Polyethylene glycol 400): 47.4 mg/g; Solubility ([3]; Form I, Propylene glycol): 2.69 mg/g; Solubility ([3]; Form I, Water): 0.001 mg/g; solubility in water ([3]; water): virtually insoluble in water; Solubility ([3]; water, read-out: solubility of dapivirine in water): < 1 µg/mL

From patent publication US20250114299A1, “COMBINATION THERAPY INTRAVAGINAL RINGS” (The population Council, Inc., priority 2022, published 2025)
